Experiments:
[1] = Pharmacokinetics study in rats after oral administration of YDXNT (UPLC-QqQ-MS of plasma)
Protocol: (§1) Six milliliters of 75% methanol was added to two milliliters of prepared plasma and then vortexed for 60 s. The mixture was centrifuged at 4000 rpm for 10 min at 4 °C. The supernatant was transferred to another EP tube and dried using a pressure blowing concentrator. The residue was redissolved with 200 μL of 75% methanol, vortexed for 60 s, and then centrifuged at 13 000 rpm for 10 min. To an aliquot of 200 μL plasma, 120 μL of 0.2 mol L^−1 acetic acid–sodium acetate buffer solution (pH = 4.6), 100 μL of the IS baicalein and 80 μL of 980 U mL^−1 β-glucuronidase and sulfatase was added and then vortexed for 1 min. The mixture was hydrolyzed in a water bath at 37 °C for 30 min, and 600 μL acetone was added to stop the hydrolysis. The sample was cooled, followed by vortexing for 2 min and then centrifugation at 13 000 rpm for 10 min. The supernatant fluid was evaporated to dryness under a flow of nitrogen gas.
(§2) Chromatographic analysis was performed using an Agilent 1290 Series UPLC from Agilent Technologies (Palo Alto, CA, USA), equipped with a quaternary pump an online degasser, auto-sampler and column oven. Chromatographic separation was performed on the Agilent ZORBAX SB-Aq C18 column (100 mm × 2.1 mm, 1.8 μm, Agilent, USA). The analytical column temperature was maintained at 30 °C and eluted with a mobile phase comprising 0.1% formic acid in water (A) and acetonitrile (B) using the following gradient program: 25–90% B from 0 to 1 min, 90% B from 1 to 3.5 min, and 90–25% B from 3.5 to 5 min at a flow rate of 0.3 mL min^−1. The equilibration time was 5 min, and the injection volume of sample and reference constituents was 5 μL.
(§3) Mass spectrometry was performed on the Agilent 6490 triple-quadrupole mass spectrometer (Palo Alto, CA, USA) equipped with an atmospheric pressure chemical ionization (APCI) interface. The mass spectrometer was set in negative ionization mode, with the capillary voltage set at 3500 V. The other parameters in the source were set as follows: desolvation gas flow, 15 L min^−1; source temperature, 290 °C; N2 sheath gas temperature, 350 °C; nebulizer gas (N2) pressure, 50 psi; flow, 12 L min^−1. The mass spectrometer scanned in multiple reaction monitoring (MRM) mode.
(§4) Six male rats were used in the pharmacokinetics study. All the rats were orally administered 2.4 g kg^−1 YXCNT suspended in an aqueous solution of 0.5% carboxymethyl cellulose sodium (QCT: 4.118 mg; KMF: 5.067 mg; ISR: 0.965 mg; GA: 1.416 mg; GB: 0.680 mg; GC: 0.796 mg; BB: 0.326 mg; TSIIA: 0.624 mg; SAB: 3.84 mg). After dosing for 0 min, 5 min, 15 min, 20 min, 30 min, 45 min, 1 h, 1.5 h, 2 h, 3 h, 4 h, 6 h, 8 h, 12 h, and 24 h, blood samples (500 μL) were drawn from the retro-orbital plexus of each mouse and collected in heparinized tubes according to the specific schedule. All the collected blood samples were immediately centrifuged at 13 000 rpm for 10 min. The plasma layer was transferred to clean tubes and stored at −20 °C until analysis. The plasma concentrations of QCT, ISR, KMF, GA, GB, GC, BB, TSIIA, and SAB were expressed as the mean ± standard deviation (SD), and the mean concentration–time curve was plotted. Non-compartmental pharmacokinetic parameters were computed using DAS 2.1.1 software.

[2] = Stability of the analytes in rat plasma QC samples (short-term, autosampler, freeze-thaw, long-term); conditions: n = 6
in vivo = conditions: male, Sprague-Dawley, rat, po
Protocol: as §1, §2, §3, §4

[3] = rat plasma, oral YDXNT 4.8 g kg^−1 d^−1 (2.4 g kg^−1 in source), n = 6, mean ± SD
[4] = rat plasma, oral YDXNT 4.8 g kg^−1 d^−1 (2.4 g kg^−1 in source), n = 6, non-compartmental
[5] = male, Sprague-Dawley, rat, plasma, po, 4.8 g kg^−1 d^−1
[6] = 1 ng mL^−1, -20°C for four weeks
[7] = 1 ng mL^−1, room temperature for 6 h before sample preparation
[8] = 1 ng mL^−1, room temperature for 12 h in the autosampler after sample preparation
[9] = 1 ng mL^−1, three freeze-thaw cycles -20°C to ambient temperature
[10] = 10 ng mL^−1, -20°C for four weeks
[11] = 10 ng mL^−1, room temperature for 6 h before sample preparation
[12] = 10 ng mL^−1, room temperature for 12 h in the autosampler after sample preparation
[13] = 10 ng mL^−1, three freeze-thaw cycles -20°C to ambient temperature
[14] = 100 ng mL^−1, -20°C for four weeks
[15] = 100 ng mL^−1, room temperature for 6 h before sample preparation
[16] = 100 ng mL^−1, room temperature for 12 h in the autosampler after sample preparation
[17] = 100 ng mL^−1, three freeze-thaw cycles -20°C to ambient temperature

| Compound | AUC(0-inf) [1, 5] | AUC(0-t) [1, 5] | Cmax [1, 5] | MRT [1, 5] | Tmax [1, 5] | half-life [1, 5] | Long-term stability Accuracy [2, 6] | Short-term stability Accuracy [2, 7] | Autosampler stability Accuracy [2, 8] | Freeze–thaw strability (three cycles) Accuracy [2, 9] | Long-term stability Accuracy [2, 10] | Short-term stability Accuracy [2, 11] | Autosampler stability Accuracy [2, 12] | Freeze–thaw strability (three cycles) Accuracy [2, 13] | Long-term stability Accuracy [2, 14] | Short-term stability Accuracy [2, 15] | Autosampler stability Accuracy [2, 16] | Freeze–thaw strability (three cycles) Accuracy [2, 17] | further results |
| --- | --- | --- | --- | --- | --- | --- | --- | --- | --- | --- | --- | --- | --- | --- | --- | --- | --- | --- | --- |
| salvianolic acid B [SAB] |  |  |  |  |  |  |  |  |  |  |  |  |  |  |  |  |  |  | C max [1, 3]: 32.00 ± 15.43 ng/mL; T max [1, 3]: 0.75 ± 0.18 h; AUC0–INF [1, 4]: 135.72 ± 64.24; MRT [1, 4]: 9.46 ± 2.37 h; T 1/2 [1, 4]: 12.17 ± 3.33 h; AUC0–t ([1]; rat plasma, oral YDXNT 4.8 g kg^−1 d^−1 (2.4 g kg^−1 in source), n = 6, sampling to 24 h, non-compartmental): 118.17 ± 58.46; Long-term stability Accuracy ([2]; 5 ng mL^−1, -20°C for four weeks): 102.76 ± 5.39%; Short-term stability Accuracy ([2]; 5 ng mL^−1, room temperature for 6 h before sample preparation): 97.28 ± 2.19%; Autosampler stability Accuracy ([2]; 5 ng mL^−1, room temperature for 12 h in the autosampler after sample preparation): 96.38 ± 8.63%; Freeze–thaw strability (three cycles) Accuracy ([2]; 5 ng mL^−1, three freeze-thaw cycles -20°C to ambient temperature): 99.24 ± 6.68%; Long-term stability Accuracy ([2]; 50 ng mL^−1, -20°C for four weeks): 95.72 ± 6.59%; Short-term stability Accuracy ([2]; 50 ng mL^−1, room temperature for 6 h before sample preparation): 96.44 ± 6.33%; Autosampler stability Accuracy ([2]; 50 ng mL^−1, room temperature for 12 h in the autosampler after sample preparation): 96.41 ± 5.79%; Freeze–thaw strability (three cycles) Accuracy ([2]; 50 ng mL^−1, three freeze-thaw cycles -20°C to ambient temperature): 98.88 ± 3.59%; Long-term stability Accuracy ([2]; 500 ng mL^−1, -20°C for four weeks): 97.38 ± 4.39%; Short-term stability Accuracy ([2]; 500 ng mL^−1, room temperature for 6 h before sample preparation): 95.76 ± 8.18%; Autosampler stability Accuracy ([2]; 500 ng mL^−1, room temperature for 12 h in the autosampler after sample preparation): 93.17 ± 7.35%; Freeze–thaw strability (three cycles) Accuracy ([2]; 500 ng mL^−1, three freeze-thaw cycles -20°C to ambient temperature): 95.47 ± 4.92% |
| CC(C)(C)[C@]1(O)CC2OC(=O)CC23C(=O)OC2OC(=O)[C@H](O)C231 (stereo partly drawn) [BB, bilobalide] | 384 ± 51.5 ng·h/mL | 366 ± 48.4 ng·h/mL | 48.7 ± 12.3 ng/mL | 9.62 ± 3.18 h | 0.75 ± 0.5 h | 5.55 ± 2.67 h | 99.15 ± 5.73% | 98.10 ± 7.83% | 103.47 ± 6.75% | 99.85 ± 6.27% | 96.38 ± 8.63% | 99.78 ± 5.25% | 95.29 ± 2.77% | 98.88 ± 3.59% | 95.54 ± 7.76% | 94.05 ± 2.61% | 97.44 ± 3.13% | 95.47 ± 4.92% |  |
| O=c1c(O)c(-c2ccc(O)c(O)c2)oc2cc(O)cc(O)c12 [QCT, quercetin] | 412 ± 82.7 ng·h/mL | 410 ± 73.2 ng·h/mL | 45 ± 11.3 ng/mL | 8.44 ± 1.24 h | 0.33 ± 0.11 h | 2.69 ± 0.65 h | 97.57 ± 3.42% | 100.23 ± 1.69% | 103.73 ± 5.52% | 98.27 ± 6.33% | 96.41 ± 5.79% | 97.45 ± 4.23% | 99.34 ± 6.73% | 100.31 ± 4.27% | 93.17 ± 7.35% | 95.97 ± 2.36% | 94.22 ± 5.14% | 98.35 ± 7.84% |  |
| C[C@@H]1C(=O)O[C@H]2C[C@@]34[C@H]5C[C@@H](C(C)(C)C)[C@]36[C@@H](OC(=O)[C@@H]6O)O[C@@]4(C(=O)O5)[C@]21O [GA, ginkgolide A] |  |  |  |  |  |  | 98.92 ± 5.81% | 100.59 ± 6.08% | 97.28 ± 2.19% | 102.76 ± 5.39% | 95.48 ± 10.28% | 102.54 ± 7.33% | 98.33 ± 3.46% | 98.42 ± 2.84% | 92.19 ± 8.81% | 98.31 ± 5.29% | 96.83 ± 8.30% | 95.44 ± 7.51% | AUC(0-inf) (in vivo): 545 ± 78.9 ng·h/mL; AUC(0-t) (in vivo): 491 ± 72.6 ng·h/mL; Cmax (in vivo): 76.3 ± 18.2 ng/mL; MRT (in vivo): 9.42 ± 1.77 h; Tmax (in vivo): 0.75 ± 0.29 h; half-life (in vivo): 7.52 ± 2.08 h |
| COc1cc(-c2oc3cc(O)cc(O)c3c(=O)c2O)ccc1O [ISR, isorhamnetin] |  |  |  |  |  |  | 98.35 ± 6.27% | 99.24 ± 6.68% | 98.06 ± 8.29% | 103.15 ± 5.43% | 96.44 ± 6.33% | 96.28 ± 5.89% | 97.72 ± 3.83% | 94.52 ± 3.68% | 95.76 ± 8.18% | 102.18 ± 4.95% | 98.34 ± 7.61% | 99.63 ± 3.38% | AUC(0-inf) (in vivo): 384 ± 55.1 ng·h/mL; AUC(0-t) (in vivo): 319 ± 49.3 ng·h/mL; Cmax (in vivo): 27.9 ± 8.38 ng/mL; MRT (in vivo): 13.9 ± 3.71 h; Tmax (in vivo): 0.33 ± 0.14 h; half-life (in vivo): 8.19 ± 2.42 h |
| O=c1c(O)c(-c2ccc(O)cc2)oc2cc(O)cc(O)c12 [KMF, kaempferol] | 539 ± 82.3 ng·h/mL | 401 ± 84.4 ng·h/mL | 49.9 ± 13.8 ng/mL | 17.1 ± 4.42 h | 0.5 ± 0.23 h | 8.19 ± 2.42 h | 98.70 ± 9.35% | 96.50 ± 6.47% | 99.17 ± 4.39% | 101.23 ± 8.76% | 100.48 ± 7.44% | 101.22 ± 2.09% | 102.65 ± 5.28% | 103.21 ± 4.14% | 95.21 ± 5.96% | 97.10 ± 3.69% | 95.96 ± 3.11% | 94.24 ± 6.63% |  |
| Cc1coc2c1C(=O)C(=O)c1c-2ccc2c1CCCC2(C)C [TSIIA, tanshinone IIA] | 183 ± 77.4 ng·h/mL | 167 ± 69.5 ng·h/mL | 38.3 ± 17.4 ng/mL | 9.89 ± 1.5 h | 0.25 ± 0.23 h | 7.04 ± 2.18 h | 101.23 ± 8.76% | 96.50 ± 6.47% | 102.65 ± 5.28% | 100.31 ± 4.27% | 103.21 ± 4.14% | 101.22 ± 2.09% | 95.96 ± 3.11% | 101.22 ± 2.09% | 94.24 ± 6.63% | 95.96 ± 3.11% | 99.15 ± 5.73% | 95.97 ± 2.36% |  |

From publication PMC9080097, “Identification of absorbed constituents and evaluation of the pharmacokinetics of main compounds after oral administration of yindanxinnaotong by UPLC-Q-TOF-MS and UPLC-QqQ-MS” (RSC Advances, 2018)
